Test system: E. coli clinical isolate expressing IMP-1
Experiment: Meropenem MIC against E. coli clinical isolate expressing IMP-1 (Test Example 10)
Assay type: cell-based
Settings: Escherichia coli, 24 h, read-out: minimum inhibitory concentration
Protocol: The enhancing effect of DTPA-ADCA on the susceptibility of E. coli clinical isolate expressing IMP-1 to a carbapenem antibacterial agent (meropenem) was evaluated by the following method. The E. coli clinical isolate was cultured overnight with shaking in LB medium. The bacterial solution was diluted to 1/1000 with LB medium, used as a test bacterial solution, and then seeded in a 96-well plate. Meropenem (Wako Pure Chemical Industries, Ltd.) was added to the bacterial solution, thereby performing two-step dilution from a maximum of 10 μg/ml. The bacteria were cultured in an incubator at 37° C. for one day, and growth at that time was measured by turbidity (655 nm). The meropenem concentration at which no bacterial growth had been observed was defined as the minimum inhibitory concentration.
The effect of DTPA-ADCA on the susceptibility of an E. coli clinical isolate to meropenem was evaluated by the following method. The E. coli clinical isolate was cultured overnight with shaking in LB medium. The bacterial solution was diluted to 1/1000 with LB medium, used as the test bacterial solution, and then seeded in a 96-well plate. Meropenem (Wako Pure Chemical Industries, Ltd.) was added to this bacterial solution in the range of 0.1 μg/ml to 0.005 μg/ml. Here, DTPA or DTPA-ADCA was used in combination therewith at a concentration of […], and the effect on bacterial growth was examined. The bacteria were cultured in an incubator at 37° C. for one day, and the growth at that time was measured by turbidity (655 nm).
FIG. 20 depicts the results. Multidrug-resistant E. coli was cultured with compounds having the indicated concentrations and the bacterial load was assessed by turbidity after 24 hours. […] Combined use of DTPA-ADCA (20 μM) reduced the minimum inhibitory concentration of meropenem to […] and enhanced the antibacterial activity by 100 times.

C[C@@H](O)[C@H]1C(=O)N2C(C(=O)O)=C(S[C@@H]3CN[C@H](C(=O)N(C)C)C3)[C@H](C)[C@H]12 [meropenem, reference compound]
MIC: 10 µg/mL

— patent publication US20240245783A1, “METALLO-BETA-LACTAMASE INHIBITOR” (priority 2021, published 2024)
